From ChEMBL document CHEMBL1201862, “PubChem BioAssay data set” (2004)
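Dose response: 5 concentrations. Exposure: 48 h. Format: 96-well plates. Endpoint: linear interpolation; highest concentration if not reached. GI50 is the concentration that inhibits growth by half.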 Activity calls are given as the source filed them. Cut-off read from the data, not from the text of the source: active = GI50 up to about 1.1 µM and inactive = higher.

Columns and labels:
Assay in all cases: NCI tumour cell line growth inhibition, 48 h
UO-31 = system: UO-31
LXFL 529 = system: LXFL 529
SF-539 = system: SF-539
NCI-H460 = system: NCI-H460
DMS-273 = system: DMS-273
OVCAR-4 = system: OVCAR-4
U-251 = system: U-251
MDA-N = system: MDA-N
K562 = system: K562
HOP-92 = system: HOP-92
SK-MEL-5 = system: SK-MEL-5
DU-145 = system: DU-145
UACC-257 = system: UACC-257
DMS-114 = system: DMS-114
SK-MEL-28 = system: SK-MEL-28
HCC 2998 = system: HCC 2998
UACC-62 = system: UACC-62
HL-60 = system: HL-60
MOLT-4 = system: MOLT-4
Hs-578T = system: Hs-578T

| SMILES | GI50 (UO-31) | GI50 (LXFL 529) | GI50 (SF-539) | GI50 (NCI-H460) | GI50 (DMS-273) | GI50 (OVCAR-4) | GI50 (U-251) | GI50 (MDA-N) | GI50 (K562) | GI50 (HOP-92) | GI50 (SK-MEL-5) | GI50 (DU-145) | GI50 (UACC-257) | GI50 (DMS-114) | GI50 (SK-MEL-28) | GI50 (HCC 2998) | GI50 (UACC-62) | GI50 (HL-60) | GI50 (MOLT-4) | GI50 (Hs-578T) |
| --- | --- | --- | --- | --- | --- | --- | --- | --- | --- | --- | --- | --- | --- | --- | --- | --- | --- | --- | --- | --- |
| O=C(CC(=O)c1ccccc1NC1=Cc2ccccc2C(=O)C1=O)C(=O)NC1=C(Cl)C(=O)c2ccccc2C1=O | 6.89 µM (inactive) | 2.46 µM (inactive) | 4.31 µM (inactive) | 3.04 µM (inactive) | 2.34 µM (inactive) | 3.36 µM (inactive) | 3.04 µM (inactive) | 1.75 µM (inactive) | 1.29 µM (inactive) | 4.51 µM (inactive) | 0.752 µM (active) | 5.71 µM (inactive) | 2.04 µM (inactive) | 1.68 µM (inactive) | 1.89 µM (inactive) | 9.84 µM (inactive) | 1.85 µM (inactive) | 0.605 µM (active) | 1.24 µM (inactive) | 1.9 µM (inactive) |
| CS(=O)(=O)OCCN(CCOS(C)(=O)=O)c1ccc(C=O)cc1 | 1.11 µM (active) | 18.1 µM (inactive) | 2.18 µM (inactive) | 0.0518 µM (active) | 0.314 µM (active) | 13 µM (inactive) | 8.07 µM (inactive) | 8.95 µM (inactive) | 20.1 µM (inactive) | 12.5 µM (inactive) | 6.27 µM (inactive) | 0.505 µM (active) | 8.32 µM (inactive) | 8.05 µM (inactive) | 17.1 µM (inactive) | 2.17 µM (inactive) | 1.27 µM (inactive) | 2.07 µM (inactive) | 0.233 µM (active) | 14.3 µM (inactive) |
| Cc1ccc(-c2cc(=O)c3cc(C)c(C)c(C(=O)O)c3o2)cc1C | > 100 µM (inactive) | > 100 µM (inactive) | > 100 µM (inactive) | > 100 µM (inactive) | > 100 µM (inactive) | > 100 µM (inactive) | > 100 µM (inactive) |  | > 100 µM (inactive) | > 100 µM (inactive) | > 100 µM (inactive) |  | > 100 µM (inactive) | > 100 µM (inactive) | > 100 µM (inactive) | > 100 µM (inactive) | > 100 µM (inactive) | > 100 µM (inactive) | > 100 µM (inactive) |  |
